Assay results as given in US20090239840A1, “AMINO SUBSTITUTED DIARYL[a,d]CYCLOHEPTENE ANALOGS AS [sequence] AGONISTS AND METHODS OF TREATMENT OF NEUROPSYCHIATRIC DISORDERS” (ACADIA PHARMACEUTICALS, INC., priority 2003, published 2009).
Like-named read-outs stand apart in the source and are kept apart here.

What was measured:
muscarinic M2 receptor = biological target: T1, muscarinic M2 receptor (Homo sapiens, UniProt P08172); experiment: R-SAT functional screen, M2; format: cell-based; settings: R-SAT; for Emax: read-out: M2 eff (efficacy); for EC50: read-out: M2 pEC50 (converted)
T1 construct: expressed in transfected cells
T1 sequence (P08172 1-466): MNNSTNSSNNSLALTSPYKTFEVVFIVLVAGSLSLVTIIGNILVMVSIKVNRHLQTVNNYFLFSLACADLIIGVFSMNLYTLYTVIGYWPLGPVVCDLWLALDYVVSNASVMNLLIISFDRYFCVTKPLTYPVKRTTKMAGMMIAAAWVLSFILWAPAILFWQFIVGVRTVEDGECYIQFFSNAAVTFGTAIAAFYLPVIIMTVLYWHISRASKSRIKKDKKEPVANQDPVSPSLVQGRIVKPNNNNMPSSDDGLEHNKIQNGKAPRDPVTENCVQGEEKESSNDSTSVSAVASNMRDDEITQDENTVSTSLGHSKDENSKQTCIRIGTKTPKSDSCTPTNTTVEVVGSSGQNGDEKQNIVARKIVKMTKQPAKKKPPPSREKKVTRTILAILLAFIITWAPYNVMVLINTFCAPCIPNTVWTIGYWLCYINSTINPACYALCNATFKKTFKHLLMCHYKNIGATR
Outline: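 Receptor Selection and Amplification Technology (R-SAT) functional cell assay at M1, M2, M3 receptors. Values reported as efficacy (eff) and potency as pEC50.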

5-HT2A receptor = 5-HT2A receptor (Homo sapiens, UniProt P28223); experiment: Receptor profile, 5-HT2A inverse agonism; format: cell-based; settings: negative log of the inhibitory IC50 (inverse agonism); read-out: 5-HT2A pIEC50 (converted)
M1 receptor = biological target: T2, M1 receptor (Homo sapiens, UniProt P11229); experiment: Receptor profile, M1 agonist activity; settings: for Emax: read-out: M1 intrinsic activity %
T2 sequence (P11229 1-460): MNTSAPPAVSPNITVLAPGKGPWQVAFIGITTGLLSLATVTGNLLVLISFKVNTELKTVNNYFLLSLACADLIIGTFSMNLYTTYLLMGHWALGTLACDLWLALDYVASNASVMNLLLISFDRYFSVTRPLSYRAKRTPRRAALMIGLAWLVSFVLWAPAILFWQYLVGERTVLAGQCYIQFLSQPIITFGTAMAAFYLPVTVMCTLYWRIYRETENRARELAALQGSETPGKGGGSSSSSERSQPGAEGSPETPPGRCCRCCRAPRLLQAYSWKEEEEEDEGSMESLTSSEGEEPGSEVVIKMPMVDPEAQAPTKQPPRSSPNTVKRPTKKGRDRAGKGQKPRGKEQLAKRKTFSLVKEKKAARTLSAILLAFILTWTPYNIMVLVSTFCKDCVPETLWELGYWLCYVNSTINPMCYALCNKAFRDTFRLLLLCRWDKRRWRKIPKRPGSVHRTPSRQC
Description: (§2) Intrinsic activity was normalized to carbachol (M1) or pergolide (D2). For those ligands devoid of agonist activity, the values shown are pKi determined using [3H]raclopride.

D2 receptor = D2 receptor (Homo sapiens, UniProt P14416); experiment: Receptor profile, D2 agonist activity; settings: for Emax: read-out: D2 intrinsic activity %; for D2 intrinsic activity, in words: devoid of agonist activity
Description: as §2

[1] = test system: hyperactivity induced by MK-801; experiment: MK-801 induced hyperactivity mouse model; format: in vivo; settings: mice, salts of the compounds
Procedure: (§1) Five of the compounds listed in Table 2 were tested in an in vivo assay predictive of antipsychotic activity. Salts of these compounds where administered to mice having hyperactivity induced by amphetamine or MK-801 administration. The compounds were administered both subcutaneously (sc) and orally (po).

[2] = test system: hyperactivity induced by amphetamine; experiment: Amphetamine induced hyperactivity mouse model; format: in vivo; settings: mice, salts of the compounds
Procedure: as §1

novel object recognition = experiment: Novel object recognition (NOR) assay; format: in vivo; settings: mice; for NOR - 60 minutes post training / NOR - 120 minutes post training: dose approx. ID75 in MK-801 hyperactivity assay
Procedure: Salts of the compounds were administered to mice at one hour post-training (a time-point at which animals normally behaviorally discriminate between novel and familiar objects) and two hours post-training (a time-point at which these animals normally no longer discriminate between objects). Doses were selected to correspond to the approximate ID75 value in the MK-801 hyperactivity assay.

Ames mutagenesis assay = format: cell-based
hERG = hERG (Homo sapiens, UniProt Q12809); experiment: hERG assay
CYP 3A4 = CYP 3A4 (Homo sapiens, UniProt P08684); experiment: biochemical
Procedure: The compounds listed in Table 4 were profiled in a panel of in vitro assays for assessment of cardiovascular (hERG), drug-drug interaction (CYP inhibition), and mutagenic (Ames) liability. Microsomal stability was also determined by measuring both rat and human microsomal clearance.

CYP 2C9 = CYP 2C9 (Homo sapiens, UniProt P11712); experiment: CYP inhibition, 2C9; format: in vitro ADME
CYP 1A2 = biological target: T3, CYP 1A2 (Homo sapiens, UniProt P05177); experiment: CYP inhibition, 1A2; format: in vitro ADME
T3 sequence (P05177 1-516): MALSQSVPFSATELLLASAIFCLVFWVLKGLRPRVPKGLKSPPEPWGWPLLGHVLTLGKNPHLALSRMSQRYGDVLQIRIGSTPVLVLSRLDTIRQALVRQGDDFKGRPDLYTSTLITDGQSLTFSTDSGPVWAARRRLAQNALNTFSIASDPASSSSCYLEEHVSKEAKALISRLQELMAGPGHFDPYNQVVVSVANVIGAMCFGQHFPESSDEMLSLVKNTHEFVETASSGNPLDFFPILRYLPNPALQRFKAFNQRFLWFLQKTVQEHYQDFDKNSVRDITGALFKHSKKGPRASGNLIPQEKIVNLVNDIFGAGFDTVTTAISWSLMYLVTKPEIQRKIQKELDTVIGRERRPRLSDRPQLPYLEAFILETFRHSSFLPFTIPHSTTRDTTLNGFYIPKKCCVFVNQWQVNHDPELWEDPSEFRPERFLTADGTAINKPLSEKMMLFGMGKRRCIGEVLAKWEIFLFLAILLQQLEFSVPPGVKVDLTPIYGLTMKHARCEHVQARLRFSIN

CYP 2C19 = CYP 2C19 (Homo sapiens, UniProt P33261); experiment: CYP inhibition, 2C19; format: in vitro ADME
CYP 2D6 = CYP 2D6 (Homo sapiens, UniProt P10635); experiment: CYP inhibition, 2D6; format: in vitro ADME
Rat microsomal clearance = format: in vitro ADME; settings: rat microsomes
[3] = Human microsomal clearance; format: in vitro ADME; settings: human microsomes
[4] = to 10 μM (cytotoxicity precluded evaluation of all concentrations)

CYP 3A4, sequence (P08684 whole entry): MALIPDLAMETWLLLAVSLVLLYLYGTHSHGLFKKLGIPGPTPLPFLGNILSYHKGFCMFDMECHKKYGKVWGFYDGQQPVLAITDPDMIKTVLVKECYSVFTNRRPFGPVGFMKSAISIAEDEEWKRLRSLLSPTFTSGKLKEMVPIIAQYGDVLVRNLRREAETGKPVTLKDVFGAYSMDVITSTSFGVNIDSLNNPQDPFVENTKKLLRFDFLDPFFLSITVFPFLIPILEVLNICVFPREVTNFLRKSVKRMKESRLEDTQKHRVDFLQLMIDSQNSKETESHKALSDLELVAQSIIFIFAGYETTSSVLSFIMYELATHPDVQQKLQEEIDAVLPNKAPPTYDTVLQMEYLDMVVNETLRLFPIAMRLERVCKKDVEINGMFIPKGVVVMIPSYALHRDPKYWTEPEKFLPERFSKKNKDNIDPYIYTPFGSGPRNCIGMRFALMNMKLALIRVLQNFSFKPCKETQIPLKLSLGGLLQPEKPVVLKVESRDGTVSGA
CYP 2C19, sequence (P33261 whole entry): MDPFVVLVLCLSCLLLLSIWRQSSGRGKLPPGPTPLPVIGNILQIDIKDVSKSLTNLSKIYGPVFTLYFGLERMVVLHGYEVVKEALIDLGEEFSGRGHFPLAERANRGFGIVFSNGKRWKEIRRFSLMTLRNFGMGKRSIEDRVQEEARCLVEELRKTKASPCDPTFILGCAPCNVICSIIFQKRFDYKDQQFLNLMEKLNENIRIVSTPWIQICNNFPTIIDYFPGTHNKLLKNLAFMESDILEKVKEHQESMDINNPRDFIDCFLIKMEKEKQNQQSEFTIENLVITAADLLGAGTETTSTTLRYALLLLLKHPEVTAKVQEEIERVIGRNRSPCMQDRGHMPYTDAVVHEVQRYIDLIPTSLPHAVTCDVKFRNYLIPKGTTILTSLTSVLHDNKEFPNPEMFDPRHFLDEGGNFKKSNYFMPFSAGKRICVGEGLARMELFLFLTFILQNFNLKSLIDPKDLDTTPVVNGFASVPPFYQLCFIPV
CYP 2D6, sequence (P10635 whole entry): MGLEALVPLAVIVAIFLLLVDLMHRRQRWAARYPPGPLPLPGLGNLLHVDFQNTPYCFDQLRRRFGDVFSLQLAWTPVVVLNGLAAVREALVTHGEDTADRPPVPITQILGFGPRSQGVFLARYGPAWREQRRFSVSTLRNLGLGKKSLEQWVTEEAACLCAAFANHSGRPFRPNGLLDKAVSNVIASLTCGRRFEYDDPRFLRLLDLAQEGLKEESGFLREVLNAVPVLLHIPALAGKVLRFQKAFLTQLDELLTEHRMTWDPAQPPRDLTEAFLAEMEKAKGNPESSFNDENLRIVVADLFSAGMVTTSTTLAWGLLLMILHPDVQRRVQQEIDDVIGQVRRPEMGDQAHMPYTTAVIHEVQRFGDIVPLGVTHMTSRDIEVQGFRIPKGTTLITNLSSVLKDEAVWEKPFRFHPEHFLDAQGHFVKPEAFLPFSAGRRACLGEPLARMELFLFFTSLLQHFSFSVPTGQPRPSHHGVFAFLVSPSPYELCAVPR
5-HT2A receptor, sequence (P28223 whole entry): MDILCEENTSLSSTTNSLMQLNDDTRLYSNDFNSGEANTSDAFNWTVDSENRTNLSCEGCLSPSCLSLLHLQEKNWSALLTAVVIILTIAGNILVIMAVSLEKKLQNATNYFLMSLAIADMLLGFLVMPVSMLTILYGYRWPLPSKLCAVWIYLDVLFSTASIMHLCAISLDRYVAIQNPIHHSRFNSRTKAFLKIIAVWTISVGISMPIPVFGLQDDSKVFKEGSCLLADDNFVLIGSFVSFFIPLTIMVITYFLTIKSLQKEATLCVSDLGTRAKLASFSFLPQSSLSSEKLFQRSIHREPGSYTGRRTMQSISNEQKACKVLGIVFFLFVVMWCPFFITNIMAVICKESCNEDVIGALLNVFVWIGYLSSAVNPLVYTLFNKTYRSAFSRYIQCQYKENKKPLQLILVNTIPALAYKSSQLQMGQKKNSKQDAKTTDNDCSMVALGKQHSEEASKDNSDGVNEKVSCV
CYP 2C9, sequence (P11712 whole entry): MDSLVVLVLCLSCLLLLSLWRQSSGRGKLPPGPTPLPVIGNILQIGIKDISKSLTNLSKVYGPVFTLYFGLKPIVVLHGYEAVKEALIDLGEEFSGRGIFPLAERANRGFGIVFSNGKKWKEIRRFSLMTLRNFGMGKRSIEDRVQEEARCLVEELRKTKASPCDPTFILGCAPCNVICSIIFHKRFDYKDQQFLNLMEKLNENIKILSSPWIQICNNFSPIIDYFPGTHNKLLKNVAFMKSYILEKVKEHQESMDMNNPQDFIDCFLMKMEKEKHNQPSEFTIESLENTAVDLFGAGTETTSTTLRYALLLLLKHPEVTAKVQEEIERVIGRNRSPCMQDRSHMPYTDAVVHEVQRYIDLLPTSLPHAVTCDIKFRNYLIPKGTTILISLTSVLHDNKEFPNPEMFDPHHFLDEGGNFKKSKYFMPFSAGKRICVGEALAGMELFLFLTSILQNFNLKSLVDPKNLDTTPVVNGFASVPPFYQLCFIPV
D2 receptor, sequence (P14416 whole entry): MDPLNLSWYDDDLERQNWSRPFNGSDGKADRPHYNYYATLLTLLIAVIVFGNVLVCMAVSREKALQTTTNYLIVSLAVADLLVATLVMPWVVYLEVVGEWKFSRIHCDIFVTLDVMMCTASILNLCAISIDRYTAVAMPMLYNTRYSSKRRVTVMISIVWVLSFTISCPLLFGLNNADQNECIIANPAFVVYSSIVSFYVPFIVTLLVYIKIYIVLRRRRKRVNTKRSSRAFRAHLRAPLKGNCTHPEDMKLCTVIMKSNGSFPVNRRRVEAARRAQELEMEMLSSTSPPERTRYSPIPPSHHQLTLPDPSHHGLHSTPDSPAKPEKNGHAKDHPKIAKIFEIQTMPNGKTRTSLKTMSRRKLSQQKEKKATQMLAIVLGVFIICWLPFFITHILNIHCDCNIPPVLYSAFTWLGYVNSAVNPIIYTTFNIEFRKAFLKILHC
hERG, sequence (Q12809 whole entry): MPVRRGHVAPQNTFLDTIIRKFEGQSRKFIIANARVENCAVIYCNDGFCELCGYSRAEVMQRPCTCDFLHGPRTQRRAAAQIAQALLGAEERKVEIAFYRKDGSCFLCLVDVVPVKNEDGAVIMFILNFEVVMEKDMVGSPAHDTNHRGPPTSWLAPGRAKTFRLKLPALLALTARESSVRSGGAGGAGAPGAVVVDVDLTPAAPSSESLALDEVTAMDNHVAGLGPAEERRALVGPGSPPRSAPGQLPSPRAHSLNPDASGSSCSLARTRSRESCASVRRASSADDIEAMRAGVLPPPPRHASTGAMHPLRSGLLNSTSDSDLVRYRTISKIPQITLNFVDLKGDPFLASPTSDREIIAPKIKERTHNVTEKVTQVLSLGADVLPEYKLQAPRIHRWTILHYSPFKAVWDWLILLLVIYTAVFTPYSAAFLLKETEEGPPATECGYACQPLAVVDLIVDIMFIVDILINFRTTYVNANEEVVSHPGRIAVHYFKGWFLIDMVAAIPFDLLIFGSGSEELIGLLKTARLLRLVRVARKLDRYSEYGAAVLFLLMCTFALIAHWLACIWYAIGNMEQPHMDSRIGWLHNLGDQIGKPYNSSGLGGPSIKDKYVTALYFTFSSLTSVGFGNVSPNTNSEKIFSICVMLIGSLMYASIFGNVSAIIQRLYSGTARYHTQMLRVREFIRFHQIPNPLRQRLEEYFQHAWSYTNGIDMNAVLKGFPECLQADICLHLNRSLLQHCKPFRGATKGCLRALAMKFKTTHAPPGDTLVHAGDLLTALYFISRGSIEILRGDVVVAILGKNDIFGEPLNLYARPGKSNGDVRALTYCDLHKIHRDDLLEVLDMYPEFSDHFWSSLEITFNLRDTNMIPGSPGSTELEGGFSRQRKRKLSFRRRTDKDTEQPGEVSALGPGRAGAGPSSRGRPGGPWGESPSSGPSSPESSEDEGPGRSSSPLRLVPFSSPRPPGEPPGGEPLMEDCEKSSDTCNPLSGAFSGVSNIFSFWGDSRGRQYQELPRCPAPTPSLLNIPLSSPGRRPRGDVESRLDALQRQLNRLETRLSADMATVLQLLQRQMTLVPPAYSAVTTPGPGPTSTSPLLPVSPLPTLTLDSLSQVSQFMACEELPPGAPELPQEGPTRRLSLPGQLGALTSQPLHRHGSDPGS

Structure (SMILES)	Emax (muscarinic M2 receptor) [%]	EC50 (muscarinic M2 receptor) [nM]	IC50 (5-HT2A receptor) [nM]	EC50 (M1 receptor) [nM]	Emax (M1 receptor) [%]	EC50 (D2 receptor) [nM]	Emax (D2 receptor) [%]	MK-801 model (ID50 mg/kg po) [1] [mg/kg]	MK-801 model (ID50 mg/kg sc) [1] [mg/kg]	Amphetamine model (ID50 mg/kg po) [2] [mg/kg]	Amphetamine model (ID50 mg/kg sc) [2] [mg/kg]	NOR Interpretation (novel object recognition)	NOR - 60 minutes post training (novel object recognition)	NOR - 120 minutes post training (novel object recognition)	IC50 (hERG) [nM]	IC50 (CYP 3A4) [nM]	IC50 (CYP 2C9) [nM]	IC50 (CYP 1A2) [nM]	IC50 (CYP 2C19) [nM]	IC50 (CYP 2D6) [nM]	other results
Brc1ccc2c(c1)N=C(N1CCNCC1)c1ccccc1O2 [8-Bromo-11-(piperazin-1-yl)-dibenzo[b,f][1,4]oxazepine]	70	1260	25.1	398	36	50.1	34														
Cc1cccc2c1Oc1ccc(Cl)cc1N=C2N1CCNCC1 [8-Chloro-4-methyl-11-(piperazin-1-yl)-dibenzo[b,f][1,4]oxazepine]	71	631	31.6	200	71			1.9	0.5	>10	3.4	procognitive	retained	retained	2000	1800	> 10000	1800	> 10000	> 10000	Ames (Ames mutagenesis assay; to 5 μM (cytotoxicity precluded evaluation of all concentrations)): Neg.; microsomal CLint (Rat microsomal clearance): 27 µL/min/mg; microsomal CLint [3]: 16 µL/min/mg; D2 intrinsic activity, in words (D2 receptor): antagonist
Cc1cccc2c1Oc1ccc(C(F)(F)F)cc1N=C2N1CCNCC1 [4-Methyl-11-(piperazin-1-yl)-8-trifluoromethyl-dibenzo[b,f][1,4]oxazepine]	75	794	2510	316	52				>10												D2 intrinsic activity, in words (D2 receptor): antagonist
Clc1ccc2c(c1)N=C(N1CCNCC1)c1ccccc1N2 [N-desmethylclozapine, reference compound]								1.5	3.5	>10	5.2	no effect	retained	not retained							Ames (Ames mutagenesis assay): Neg.
Cc1cccc2c1Oc1ccc(F)cc1N=C2N1CCNCC1 [8-Fluoro-4-methyl-11-(piperazin-1-yl)-dibenzo[b,f][1,4]oxazepine]	50	1580	126	126	56			0.6	1.4	2.8	3.3	procognitive	retained	retained	2300	~1500	> 25000	1000	> 25000	> 25000	Ames (Ames mutagenesis assay; [4]): Neg.; microsomal CLint (Rat microsomal clearance): 247 µL/min/mg; microsomal CLint [3]: 13 µL/min/mg; D2 intrinsic activity, in words (D2 receptor): antagonist
Clc1ccc2c(c1)N=C(N1CCNCC1)c1ccccc1C2 [3-Chloro-6-piperazin-1-yl-11H-dibenzo[b,e]azepine]	113	1260	31.6	100	62	12.6	33	1.6	0.7	2.8	3.6	no effect	retained	not retained	1200	~4000	> 10000	> 10000	> 10000	> 10000	Ames (Ames mutagenesis assay; [4]): Neg.; microsomal CLint (Rat microsomal clearance): 383 µL/min/mg; microsomal CLint [3]: 21 µL/min/mg
Fc1ccc2c(c1)N=C(N1CCNCC1)c1ccccc1O2 [8-Fluoro-11-(piperazin-1-yl)-dibenzo[b,f][1,4]oxazepine]	48	2510	501	316	39	15.8	73														
